Assay results: patent US10239843B2 (CANCER RESEARCH TECHNOLOGY LIMITED, priority 2014, dated 2019)

What was measured:
[1] = target: Human High specific Activity PARP1 (Homo sapiens (Human), UniProt P09874); assay: PARP1 in vitro selectivity assay (histone PARylation, luminescence); assay type: biochemical; details: read-out: PARP1 Biochem IC50
Method: PARP1 In vitro selectivity assays were conducted as a 10 ul reaction volume in a NUNC Maxisorp 384-well assay plate pre-coated in-house with Histones. […] The wells were then washed with PBS/0.1% Triton X100. PARP1 activity was then detected by measuring the extent of PARylation. […] Luminescence signal was then measured immediately.

Human Full Length PARG = Human Full Length PARG (Homo sapiens (Human), UniProt Q86W56); assay: PARG enzyme assay (TR-FRET); assay type: biochemical; details: read-out: PARG Biochem IC50
Human Full Length PARG, sequence (Q86W56 whole entry): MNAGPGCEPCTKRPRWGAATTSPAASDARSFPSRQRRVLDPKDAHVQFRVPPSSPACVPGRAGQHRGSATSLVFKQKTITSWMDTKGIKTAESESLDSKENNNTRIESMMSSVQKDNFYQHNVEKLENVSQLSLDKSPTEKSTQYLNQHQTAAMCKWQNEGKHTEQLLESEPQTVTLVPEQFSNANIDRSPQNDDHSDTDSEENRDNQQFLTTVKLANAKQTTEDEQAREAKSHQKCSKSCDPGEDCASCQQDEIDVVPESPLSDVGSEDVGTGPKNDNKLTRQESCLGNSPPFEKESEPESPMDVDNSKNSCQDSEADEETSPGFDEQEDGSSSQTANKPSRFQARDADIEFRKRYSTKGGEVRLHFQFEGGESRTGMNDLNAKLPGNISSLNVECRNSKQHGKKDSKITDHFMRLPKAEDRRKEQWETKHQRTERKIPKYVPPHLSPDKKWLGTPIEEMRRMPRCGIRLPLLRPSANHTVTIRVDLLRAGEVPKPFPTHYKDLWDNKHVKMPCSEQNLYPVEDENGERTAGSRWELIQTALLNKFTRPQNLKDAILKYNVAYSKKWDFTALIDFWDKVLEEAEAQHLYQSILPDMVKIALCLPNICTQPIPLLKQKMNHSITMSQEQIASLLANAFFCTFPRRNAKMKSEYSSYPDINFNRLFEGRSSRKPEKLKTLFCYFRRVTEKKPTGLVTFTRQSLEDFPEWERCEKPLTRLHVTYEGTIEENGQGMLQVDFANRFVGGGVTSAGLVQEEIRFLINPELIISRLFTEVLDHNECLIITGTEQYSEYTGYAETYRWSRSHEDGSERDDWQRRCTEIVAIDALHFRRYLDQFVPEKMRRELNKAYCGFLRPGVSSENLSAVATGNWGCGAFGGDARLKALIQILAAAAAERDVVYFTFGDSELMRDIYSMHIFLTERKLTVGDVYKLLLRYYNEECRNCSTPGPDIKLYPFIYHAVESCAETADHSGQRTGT

Human Full Length ARH3 = Human Full Length ARH3 (Homo sapiens (Human), UniProt Q9NX46); assay: ARH3 in vitro selectivity assay (TR-FRET); assay type: biochemical; details: read-out: ARH3 Biochem IC50
Human Full Length ARH3, sequence (Q9NX46 whole entry): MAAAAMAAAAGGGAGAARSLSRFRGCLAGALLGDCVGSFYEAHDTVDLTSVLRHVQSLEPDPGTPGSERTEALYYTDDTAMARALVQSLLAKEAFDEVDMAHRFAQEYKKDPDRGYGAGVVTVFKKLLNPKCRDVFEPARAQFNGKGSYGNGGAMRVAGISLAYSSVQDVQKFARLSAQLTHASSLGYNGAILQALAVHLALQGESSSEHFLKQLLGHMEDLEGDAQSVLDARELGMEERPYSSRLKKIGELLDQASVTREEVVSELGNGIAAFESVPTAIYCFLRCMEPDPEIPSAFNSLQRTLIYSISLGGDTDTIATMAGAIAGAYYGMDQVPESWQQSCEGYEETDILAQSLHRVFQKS
Method: ARH3 In vitro selectivity assays were conducted in a total volume of 15 ul in a standard 384 well format.

PARG in HeLa cell line = assay: PARG cell assay (PAR chain immunofluorescence after MMS); assay type: cell-based; details: Homo sapiens; HeLa cells, MMS treatment; read-out: PARG Cell IC50
Method in brief: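 HeLa cells were dosed with compound for 1 h, then given MMS at 50 μg/mL final for a further hour. Cells were methanol-fixed, permeabilised and stained overnight at 4° C with anti-PAR monoclonal antibody. Retained nuclear PAR chains, detected by indirect immunofluorescence, indicate PARG inhibition.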

Human High specific Activity PARP1, sequence (P09874 whole entry): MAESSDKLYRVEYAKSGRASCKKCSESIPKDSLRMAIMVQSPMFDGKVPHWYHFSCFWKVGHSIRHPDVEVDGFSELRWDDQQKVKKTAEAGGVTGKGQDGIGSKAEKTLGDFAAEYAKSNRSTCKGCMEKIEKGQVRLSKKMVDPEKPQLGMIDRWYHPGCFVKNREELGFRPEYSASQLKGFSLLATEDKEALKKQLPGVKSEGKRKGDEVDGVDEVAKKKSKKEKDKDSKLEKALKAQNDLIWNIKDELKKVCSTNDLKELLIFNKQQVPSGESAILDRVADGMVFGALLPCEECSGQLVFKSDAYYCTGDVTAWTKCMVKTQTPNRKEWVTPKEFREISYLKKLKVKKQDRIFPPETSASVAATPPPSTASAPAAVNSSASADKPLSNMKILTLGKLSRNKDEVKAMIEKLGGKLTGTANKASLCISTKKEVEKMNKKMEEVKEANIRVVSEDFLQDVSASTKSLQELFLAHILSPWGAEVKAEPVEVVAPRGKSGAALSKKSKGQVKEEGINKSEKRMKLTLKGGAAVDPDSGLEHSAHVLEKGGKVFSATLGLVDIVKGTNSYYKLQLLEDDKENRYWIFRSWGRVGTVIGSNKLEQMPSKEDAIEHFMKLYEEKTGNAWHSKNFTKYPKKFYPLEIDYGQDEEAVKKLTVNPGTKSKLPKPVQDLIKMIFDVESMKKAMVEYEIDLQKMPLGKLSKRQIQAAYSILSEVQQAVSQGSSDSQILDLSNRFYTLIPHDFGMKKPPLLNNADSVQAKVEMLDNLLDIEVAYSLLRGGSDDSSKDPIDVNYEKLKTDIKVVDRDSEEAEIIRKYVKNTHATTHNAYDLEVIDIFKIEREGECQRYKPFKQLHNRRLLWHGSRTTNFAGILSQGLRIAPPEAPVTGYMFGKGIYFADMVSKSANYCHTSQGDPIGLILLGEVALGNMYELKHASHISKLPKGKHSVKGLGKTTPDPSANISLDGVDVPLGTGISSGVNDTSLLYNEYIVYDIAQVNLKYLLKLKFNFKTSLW

SMILES: CCn1c(=O)n(Cc2nnc(C)s2)c(=O)c2cc(S(=O)(=O)NC3(CF)CC3)ccc21 [Example 602, 1-Ethyl-N-[1-(fluoromethyl)cyclopropyl]-3-[(5-methyl-1,3,4-thiadiazol-2-yl)methyl]-2,4-dioxo-quinazoline-6-sulfonamide]
- IC50 [1]: > 150 µM
- IC50 (Human Full Length PARG): 131 nM
- IC50 (Human Full Length ARH3): > 150 µM
- IC50 (PARG in HeLa cell line): 135 nM
